# Assay results as given in patent US20240115556A1, “A JMJD6 TARGETING AGENT FOR TREATING PROSTATE CANCER” (Cancer Research Technology Limited, priority 2020, published 2024).
# Tests used:
# JMJD6 (1-362) = molecular target: T1, JMJD6 (1-362) (Homo sapiens, UniProt Q6NYC1); test: LC-MS assay for JMJD6 inhibition (hydroxylation of LUC7L2 peptide substrate); format: biochemical; design: dose or concentration left out as unconfirmed; settings: 8-point 3-fold serial dilution of 2,4-PDCA, 2 hours at 37° C.
# T1 construct: by JMJD6 (1-362, prepared as reported); made in house
# Text: Liquid Chromatography Mass Spectrometry (LC-MS) assays for JMJD6 inhibition by 2,4-PDCA Hydroxylation of a 12-mer peptide substrate (NPKRSRSREHRR, prepared with a C-terminal amide) of the LUC7L2 pre-mRNA splicing factor by JMJD6 (1-362, prepared as reported) was monitored by liquid chromatography mass spectrometry (LC-MS) using an Agilent 1290 infinity II LC system equipped with an Agilent 1290 infinity binary pump and coupled to an Agilent 6550 Accurate Mass Quadrupole Time of Flight (Q-TOF) mass spectrometer. Note this construct has hydroxylation but not demethylation activity. All JMJD61-362 enzyme reactions were performed in 50 mM Tris.Cl pH 7.5 (prepared fresh each day) at 37° C. […] Peptide ionization was monitored in the positive ion electrospray ionisation (ESI) mode with a drying gas temperature of 280° C., a drying gas flow rate of 13 L/minute, nebulizer gas pressure of 40 PSI, sheath gas temperature of 350° C., sheath gas flow rate of 12 L/min and a nozzle voltage of 1000V. […] The % conversion of the peptide substrate to the +16 hydroxylated peptide was calculated using the equation: % conversion=100×hydroxylated/(hydroxylated+non-hydroxylated peptide). The IC50 for 2,4-PDCA was determined from non-linear regression curve fitting using GraphPad prism 6.0.
# AR-V7 in 22Rv1 PC cells = test: AR-V7 protein (WB) and mRNA (qPCR) levels in 22Rv1 PC cells; format: cell-based; settings: 2,4-PDCA for 48 hours
# Procedure: (§1) All cell lines were purchased from LGC Standards/ATCC unless otherwise specified and grown in recommended media at 37° C. in 5% CO2. Short tandem repeat profiling was performed using the Cell Authentication Service by Eurofins Medigenomix to ensure the quality and integrity of the cell lines used. Cells lines were tested for mycoplasma after thawing, then regularly every 6-8 weeks during culture using the Venor®GeM Advance Mycoplasma Detection Kit (Minerva Biolabs). Early passages were thawed every 3-months (after approximately 15-20 passages). Small interfering RNA (siRNA): All siRNAs were ONTARGETplus pools (Dharmacon; GE heathcare), and used in combination with 0.4% RNAiMax transfection reagent (ThermoFisher Scientific) as per manufacturer's instructions. siRNA experiments were performed at 50 nM, unless otherwise specified, for 72-hours. […]
# (§2) 0.45 μm pore size (Millipore). […] Chemiluminescence was then detected using the Chemidoc Touch imaging system (BioRad). Quantitative Reverse Transcription Polymerase Chain Reaction (qRT-PCR)
# (§3) The RNeasy Plus Mini kit (Qiagen) was used to extract cellular RNA as per manufacturer's instructions. […] The fold change in mRNA expression levels was calculated by the comparative Ct method, using the formula 2-(-(ΔΔCt).
# [1] = at least in some cell types; cited from earlier work
# [2] = tested on: AR-V7 in LNCaP95 PC cells; test: AR-V7 protein (WB) and mRNA (qPCR) levels in LNCaP95 PC cells; format: cell-based; settings: I-BET151 for 48 hours
# Procedure: as §1, §2, §3
# [3] = tested on: JMJD6 protein in LNCaP95 cells; test: WB of JMJD6 protein in LNCaP95 cells treated with I-BET151; format: cell-based; settings: I-BET151 for 48 hours
# Procedure: Subsequent to cell lysis with RIPA buffer (Pierce) supplemented with cOmplete™ EDTA-free Protease Inhibitor Cocktail (Roche), protein extracts (20 μg) were separated by electrophoresis on 4-12% NuPAGE® Bis-Tris gel plates (Invitrogen) prior to transfer onto Immobilon-P™ PVDF membranes of 0.45 μm pore size (Millipore). Membranes were then incubated sequentially with primary and then secondary antibody in 5% milk and tris-buffered saline (TBS) and Tween®20 (Sigma Aldrich). Chemiluminescence was then detected using the Chemidoc Touch imaging system (BioRad). Quantitative Reverse Transcription Polymerase Chain Reaction (qRT-PCR)
# AR-V7 in VCaP PC cells = test: AR-V7 protein (WB) and mRNA (qPCR) levels in VCaP PC cells; format: cell-based; settings: 72 hour, siRNA 25 nM, Enzalutamide 10 µM
# Procedure: as §1, §2, §3
# VCaP PC cells = test: CellTiter-Glo Luminescent Cell Viability Assay, VCaP; format: cell-based; settings: siRNA 25 nM; Enzalutamide; after 5-days; vs control siRNA + DMSO 0.1%
# Procedure: Cells were plated in 48-well tissue culture plates and treated as indicated the following day, then grown for 6-days or until 80-90% confluence. To quantify growth of LNCaP, LNCaP95, 22Rv1 and PNT2 cell lines, cells were fixed with 10% (w/v) aqueous trichloroacetic acid and incubated at 4° C. for 30-minutes prior to washing and air-drying. Subsequently cells were stained with sulforhodamine B (SRB) for 30-minutes prior to excess dye removal with 1% (v/v) aqueous acetic acid and further air-drying. Following this, protein-bound dye was dissolved in 10 mM Tris base solution, transferred to a 96-wellplate, and optical density determined at 510 nm using the Synergy HT microplate reader (BioTek). VCaP cell growth assays were analyzed using CellTiter-Glo® Luminescent Cell Viability Assay (Promega) as per manufacturer instructions, and luminescence quantified using the Synergy HT microplate reader (BioTek).
# [4] = tested on: 12-mer peptide substrate of the LUC7L2 pre-mRNA splicing factor
molecule,measurement,setting,value
"O=C(O)c1ccnc(C(=O)O)c1 [2,4-PDCA, pyridine-2,4-dicarboxylic acid]",isolated JMJD6-mediated lysyl-5-hydroxylation of LUC7-Like (LUC7L),JMJD6 (1-362),dose-dependent reduction
same,AR-V7 protein levels,AR-V7 in 22Rv1 PC cells,dose-dependent reduction
same,permeability,[1],low
COc1cc2c(cc1-c1c(C)noc1C)ncc1[nH]c(=O)n([C@H](C)c3ccccn3)c12 [I-BET151],AR-V7 protein expression,[2],dose-dependent reduction
same,JMJD6 protein expression,[3],dose-dependent reduction
CNC(=O)c1ccc(N2C(=S)N(c3ccc(C#N)c(C(F)(F)F)c3)C(=O)C2(C)C)cc1F [enzalutamide],AR-V7 protein (WB) levels,AR-V7 in VCaP PC cells,increase significantly
same,VCaP PC cell viability,VCaP PC cells,reduced
JMJD6 (1-362),"lysyl-5-hydroxylation of the peptide substrate (LC-MS, % conversion to the +16 hydroxylated peptide)",[4],"2,4-PDCA caused dose-dependent reduction in isolated JMJD6-mediated lysyl-5-hydroxylation of the known downstream target LUC7-Like (LUC7L)"
